Reference: patent publication US5466671A, “Apidaecin-type peptide antibiotics with improved activities and/or different antibacterial spectrum” (priority 1994, dated 1995)
Residues, ends and D or L forms follow the SMILES beside them.

What was measured:
Haemophilus influenzae = assay: Inhibition zone assay (agar plate); assay type: cell-based; settings: 50 nanomoles/well, 3 mm wells
E. coli Apid^R = assay: Minimal inhibitory concentration (liquid culture); assay type: cell-based; settings: a-b = highest concentration with growth - lowest without growth
From the text: For details see `Experimental Procedures`.

[1] = test system: Escherichia coli (ATCC11775); assay: Inhibition zone assay (agar plate); assay type: cell-based; settings: agar plate, 50 nanomoles/well, 3 mm wells
E. coli 25922 = assay: Minimal inhibitory concentration (liquid culture); settings: inoculum 1100 CFU/ml; a-b = highest concentration with growth - lowest without growth
Erwinia amylovora = assay: Inhibition zone assay (agar plate); assay type: cell-based; settings: agar plate, 50 nanomoles/well, 3 mm wells
Enterobacter cloacae = assay: Inhibition zone assay (agar plate); assay type: cell-based; settings: agar plate, 50 nanomoles/well, 3 mm wells
E. coli 11775 = assay: Minimal inhibitory concentration (liquid culture); settings: a-b = highest concentration with growth - lowest without growth
[2] = test system: Acinetobacter calcoaceticus; assay: Inhibition zone assay (agar plate); assay type: cell-based; settings: agar plate, 50 nanomoles/well, 3 mm wells
A. calcoaceticus = assay: Minimal inhibitory concentration (liquid culture); settings: inoculum 16 × 10^6 CFU/ml; a-b = highest concentration with growth - lowest without growth
Y. enterocolitica = assay: Minimal inhibitory concentration (liquid culture); settings: inoculum 5000 CFU/ml; a-b = highest concentration with growth - lowest without growth
Pseudomonas syringae = assay: Inhibition zone assay (agar plate); assay type: cell-based; settings: agar plate, 50 nanomoles/well, 3 mm wells
Salmonella typhimurium = assay: Inhibition zone assay (agar plate); assay type: cell-based; settings: agar plate, 50 nanomoles/well, 3 mm wells
Rhizobium meliloti = assay: Inhibition zone assay (agar plate); assay type: cell-based; settings: 50 nanomoles/well, 3 mm wells
[3] = test system: Agrobacterium tumefaciens; assay: Inhibition zone assay (agar plate); assay type: cell-based; settings: agar plate, 50 nanomoles/well, 3 mm wells
M. morganii = assay: Minimal inhibitory concentration (liquid culture); settings: inoculum 400 CFU/ml; a-b = highest concentration with growth - lowest without growth
Yersinia enterocolitica = assay: Inhibition zone assay (agar plate); assay type: cell-based; settings: 50 nanomoles/well, 3 mm wells
Legionella pneumophila = assay type: cell-based; settings: agar plate, 50 nanomoles/well, 3 mm wells
Klebsiella pneumoniae = assay: Inhibition zone assay (agar plate); assay type: cell-based; settings: agar plate, 50 nanomoles/well, 3 mm wells
E. coli 23802 = assay: Minimal inhibitory concentration (liquid culture); settings: inoculum 5000 CFU/ml; a-b = highest concentration with growth - lowest without growth
S. typhimurium = assay: Minimal inhibitory concentration (liquid culture); settings: inoculum 8 × 10^6 CFU/ml; a-b = highest concentration with growth - lowest without growth
Campylobacter jejuni = assay: Inhibition zone assay (agar plate); assay type: cell-based; settings: 50 nanomoles/well, 3 mm wells
Morganella morganii = assay: Inhibition zone assay (agar plate); assay type: cell-based; settings: 50 nanomoles/well, 3 mm wells
Escherichia coli (K514) = assay type: cell-based; settings: agar plate, 50 nanomoles/well, 3 mm wells
Shigella dysenteriae = assay type: cell-based; settings: agar plate, 50 nanomoles/well, 3 mm wells
Francisella tularensis = assay type: cell-based; settings: agar plate, 50 nanomoles/well, 3 mm wells

Structure (SMILES)	inhibition zone diameter (number of plus signs) (Haemophilus influenzae)	minimal inhibitory concentration (MIC) (E. coli Apid^R; inoculum 12 × 10^6 CFU/ml) [mg/L]	minimal inhibitory concentration (MIC) (E. coli Apid^R; inoculum 1000 CFU/ml) [mg/L]	inhibition zone diameter (number of plus signs) [1]	minimal inhibitory concentration (MIC) (E. coli 25922) [mg/L]	inhibition zone diameter (number of plus signs) (Erwinia amylovora)	inhibition zone diameter (number of plus signs) (Enterobacter cloacae)	minimal inhibitory concentration (MIC) (E. coli 11775; inoculum 16 × 10^6 CFU/ml) [mg/L]	minimal inhibitory concentration (MIC) (E. coli 11775; inoculum 1200 CFU/ml) [mg/L]	inhibition zone diameter (number of plus signs) [2]	minimal inhibitory concentration (MIC) (A. calcoaceticus) [mg/L]	minimal inhibitory concentration (MIC) (Y. enterocolitica) [mg/L]	inhibition zone diameter (number of plus signs) (Pseudomonas syringae)	inhibition zone diameter (number of plus signs) (Salmonella typhimurium)	inhibition zone diameter (number of plus signs) (Rhizobium meliloti)	inhibition zone diameter (number of plus signs) [3]	minimal inhibitory concentration (MIC) (M. morganii) [mg/L]	inhibition zone diameter (number of plus signs) (Klebsiella pneumoniae)	minimal inhibitory concentration (MIC) (E. coli 23802) [mg/L]	minimal inhibitory concentration (MIC) (S. typhimurium) [mg/L]	further results
CC[C@H](C)[C@H](NC(=O)[C@H](Cc1ccc(O)cc1)NC(=O)[C@@H](NC(=O)[C@@H]1CCCN1C(=O)[C@H](CCCNC(=N)N)NC(=O)[C@@H](N)CC(N)=O)C(C)C)C(=O)N1CCC[C@H]1C(=O)N1CCC[C@H]1C(=O)N1CCC[C@H]1C(=O)N[C@@H](CCCNC(=N)N)C(=O)N1CCC[C@H]1C(=O)N1CCC[C@H]1C(=O)N[C@@H](Cc1c[nH]cn1)C(=O)N1CCC[C@H]1C(=O)N[C@@H](CCCNC(=N)N)C(=O)N[C@@H](CC(C)C)C(=O)O [Bb-A] (H-NRPVYIPPPRPPHPRL-OH)	++ ((++) 7-9 mm)	> 40	> 40	++++ ((++++) 15-19 mm)	1 to 5	++++ ((++++) 15-19 mm)	+++ ((+++) 10-14 mm)	1 to 5	0.1 to 0.5	++ ((++) 7-9 mm)	> 20	1 to 5	++++ ((++++) 15-19 mm)	+++ ((+++) 10-14 mm)	+++++ ((+++++) 20 or more min)	++++ ((++++) 15-19 mm)	> 40	++ ((++) 7-9 mm)	10 to 20	0.5 to 1	inhibition zone diameter (number of plus signs) (Yersinia enterocolitica): +++ ((+++) 10-14 mm); inhibition zone diameter (number of plus signs) (Legionella pneumophila): + ((+) 5-6 mm)
CC[C@H](C)[C@H](NC(=O)[C@@H]1CCCN1C(=O)[C@H](C)NC(=O)[C@@H]1CCCN1C(=O)[C@H](CCCNC(=N)N)NC(=O)[C@@H]1CCCN1C(=O)[C@H](CCCCN)NC(=O)[C@H](CC(N)=O)NC(=O)[C@@H]1CCCN1C(=O)[C@H](CCCCN)NC(=O)CN)C(=O)N[C@@H](CCCCN)C(=O)N1CCC[C@H]1C(=O)N[C@@H](CCCNC(=N)N)C(=O)N1CCC[C@H]1C(=O)N1CCC[C@H]1C(=O)N[C@@H](Cc1c[nH]cn1)C(=O)N1CCC[C@H]1C(=O)N[C@@H](CCCNC(=N)N)C(=O)N[C@@H](CC(C)C)C(=O)O [Cd 2+, Gly--Lys--Pro--Asn--Lys--Pro--Arg--Pro--Ala--Pro--Ile--Lys--Pro--Arg--Pro--Pro--His--Pro--Arg--Leu] (H-GKPNKPRPAPIKPRPPHPRL-OH)	++++ ((++++) 15-19 mm)	0.5 to 1.5	0.5 to 1	+++ ((+++) 10-14 mm)	0.1 to 0.5	++ ((++) 7-9 mm)	+++ ((+++) 10-14 mm)	0.1 to 0.5	0.1 to 0.5	+ ((+) 5-6 mm)	10 to 20	10 to 20	+++ ((+++) 10-14 mm)	+++ ((+++) 10-14 mm)	++++ ((++++) 15-19 mm)	+++ ((+++) 10-14 mm)	1 to 5	++ ((++) 7-9 mm)	0.1 to 0.5	0.1 to 0.5	inhibition zone diameter (number of plus signs) (Campylobacter jejuni): +++++ ((+++++) 20 or more min); minimal inhibitory concentration (MIC) (E. coli Apid^R; inoculum 12 × 10^6 CFU/ml, listed as Cd2+): measurable activities; inhibition zone diameter (number of plus signs) (Morganella morganii): ++ ((++) 7-9 mm); inhibition zone diameter (number of plus signs) (Escherichia coli (K514)): ++ ((++) 7-9 mm)
CC[C@H](C)[C@H](NC(=O)[C@H](Cc1ccc(O)cc1)NC(=O)[C@@H](NC(=O)[C@@H]1CCCN1C(=O)[C@H](CCCNC(=N)N)NC(=O)[C@H](CC(N)=O)NC(=O)[C@H](C)N)C(C)C)C(=O)N1CCC[C@H]1C(=O)N1CCC[C@H]1C(=O)N1CCC[C@H]1C(=O)N[C@@H](CCCNC(=N)N)C(=O)N1CCC[C@H]1C(=O)N1CCC[C@H]1C(=O)N[C@@H](Cc1c[nH]cn1)C(=O)N1CCC[C@H]1C(=O)N[C@@H](CCCNC(=N)N)C(=O)N[C@@H](CC(C)C)C(=O)O [Bb+A] (H-ANRPVYIPPPRPPHPRL-OH)	+++ ((+++) 10-14 mm)	> 40	> 40	++++ ((++++) 15-19 mm)	0.5 to 1	++++ ((++++) 15-19 mm)	+++ ((+++) 10-14 mm)	0.5 to 1	0.05 to 0.1	++ ((++) 7-9 mm)	2 to 10	5 to 10	+++++ ((+++++) 20 or more min)	+++ ((+++) 10-14 mm)	++++ ((++++) 15-19 mm)	++++ ((++++) 15-19 mm)	20 to 40	++ ((++) 7-9 mm)	10 to 20	0.5 to 1	inhibition zone diameter (number of plus signs) (Shigella dysenteriae): + +++; inhibition zone diameter (number of plus signs) (Yersinia enterocolitica): +++ ((+++) 10-14 mm); inhibition zone diameter (number of plus signs) (Legionella pneumophila): ++ ((++) 7-9 mm)
CC(C)C[C@H](NC(=O)[C@H](CCCNC(=N)N)NC(=O)[C@@H]1CCCN1C(=O)[C@H](Cc1c[nH]cn1)NC(=O)[C@@H]1CCCN1C(=O)[C@@H]1CCCN1C(=O)[C@H](CCCNC(=N)N)NC(=O)[C@@H]1CCCN1C(=O)[C@@H]1CCCN1C(=O)[C@@H](NC(=O)[C@H](CCC(N)=O)NC(=O)[C@H](CCC(N)=O)NC(=O)[C@@H]1CCCN1C(=O)[C@H](CCCNC(=N)N)NC(=O)[C@@H]1CCCN1C(=O)[C@H](CCCCN)NC(=O)[C@@H](N)CC(N)=O)C(C)C)C(=O)O [Yj -S, Asn--Lys--Pro--Arg--Pro--Gln--Gln--Val--Pro--Pro--Arg--Pro--Pro--His--Pro--Arg--Leu] (H-NKPRPQQVPPRPPHPRL-OH)	++ ((++) 7-9 mm)	5 to 10	5 to 10	+++ ((+++) 10-14 mm)	0.1 to 0.5	++++ ((++++) 15-19 mm)	++ ((++) 7-9 mm)	0.1 to 0.5	0.1 to 0.5	++ ((++) 7-9 mm)	2 to 10	1 to 5	++++ ((++++) 15-19 mm)	+++ ((+++) 10-14 mm)	++++ ((++++) 15-19 mm)	++ ((++) 7-9 mm)	1 to 5	++ ((++) 7-9 mm)	1 to 5	0.1 to 0.5	inhibition zone diameter (number of plus signs) (Francisella tularensis): + ((+) 5-6 mm); inhibition zone diameter (number of plus signs) (Yersinia enterocolitica): ++ ((++) 7-9 mm)
